Laboratory results from article PMC6430730, “A short peptide potentially promotes the healing of skin wound” (Bioscience Reports, 2019).
Where a SMILES comes first, the peptide text is derived from it.

Experiments:
[1] = test system: S. epidermidis (ATCC 12228); assay: Antimicrobial activity assay (agar hole diffusion); assay type: cell-based, Staphylococcus epidermidis; design: key: +: Possessing antimicrobial activity; -: Possessing no antimicrobial activity; settings: Amp (1 mg/ml), 7 μl in agar hole, 16–18 h, 37°C
Procedure: (§1) The antimicrobial activity of OA-GL12 was performed based on our previous research. Briefly, fungal strain Candida albicans (ATCC 14053), Gram-positive bacterial strains Staphylococcus epidermidis (ATCC 12228), Staphylococcus haemolyticus (ATCC 29970), and Bacillus subtilis (ATCC 19659), Gram-negative bacterial strains Escherichia coli (ATCC 25922) were obtained from the Kunming Medical University. The microbes were cultivated in LB broth to OD600 = 0.8. A 10-μl aliquot of the bacteria was collected and added to fresh LB (10 ml) broth with 1% Type I agar (Sigma–Aldrich, St. Louis, MO, U.S.A.), and then poured into a 90-mm Petri dish. A micro hole was made after the agar was solidified, and a 7-μl aliquot of OA-GL12 (1 mM) was added to the hole. Petri dish was placed for 16–18 h at 37°C. As the symbol of antimicrobial activity, a clear zone appeared on the surface of the agar just like ampicillin (1 mg/ml), positive control, which represented the antimicrobial ability of OA-GL12.

C. albicans (ATCC 14053) = assay: Antimicrobial activity assay (agar hole diffusion); assay type: cell-based, Candida albicans; design: key: +: Possessing antimicrobial activity; -: Possessing no antimicrobial activity; settings: Amp (1 mg/ml), 7 μl in agar hole, 16–18 h, 37°C
Procedure: as §1

E. coli (ATCC 25922) = assay: Antimicrobial activity assay (agar hole diffusion); assay type: cell-based, Escherichia coli; design: key: +: Possessing antimicrobial activity; -: Possessing no antimicrobial activity; settings: Amp (1 mg/ml), 7 μl in agar hole, 16–18 h, 37°C
Procedure: as §1

B. subtilis (ATCC 19659) = assay: Antimicrobial activity assay (agar hole diffusion); assay type: cell-based, Bacillus subtilis; design: key: +: Possessing antimicrobial activity; -: Possessing no antimicrobial activity; settings: Amp (1 mg/ml), 7 μl in agar hole, 16–18 h, 37°C
Procedure: as §1

[2] = test system: S. haemolyticus (ATCC 29970); assay: Antimicrobial activity assay (agar hole diffusion); assay type: cell-based, Staphylococcus haemolyticus; design: key: +: Possessing antimicrobial activity; -: Possessing no antimicrobial activity; settings: Amp (1 mg/ml), 7 μl in agar hole, 16–18 h, 37°C
Procedure: as §1

[3] = DPPH free radical scavenging; assay type: physicochemical; settings: 30 min, room temperature, A517
Procedure: 2,2′-azino-bis (3-ethylbenzothiazoline-6-sulphonic acid) (ABTS) and 2,2-diphenyl-1-picrythydrazyl (DPPH)) scavenging activities of OA-GL12 were assessed referring to previous studies. Briefly, a stock solution of ABTS radical was prepared by incubating 2.8 mM potassium persulphate (Sigma–Aldrich, St. Louis, MO, U.S.A.) with 7 mM ABTS in water for no less than 6 h in the dark, and used immediately. The stock solution was diluted 50-fold with double distilled water. Dissolved samples with ultrapure water were added to the diluted stock solution, while the same volume of solvent was used as the blank, and Vitamin C as the positive control. The reaction was in the dark for 30 min. […] Meanwhile, the assay mixture contained 190 μl of 5 × 10^−5 M DPPH radical (Sigma–Aldrich, St. Louis, MO, U.S.A.) dissolved in ethanol and 10 μl of sample solution. The mixture was then incubated in a 96-well microtiter plates at room temperature for 30 min. Subsequently, the absorbance was measured at 517 nm. The free radical scavenging activity (%) was calculated by (Ablank − Asample) × 100/Ablank.

[4] = test system: full-thickness skin wound mice; settings: in vivo
Procedure: Adult male mice (22–25 g) from the same generation were purchased from Hunan SJA Laboratory Animal Co., Ltd (Certificate number 43004700043639, China). […] Mice were made full-thickness skin wound models after 7 days’ acclimation. Briefly, mice were anesthetized by intraperitoneal injection (i.p.) with 1% sodium pentobarbital (0.1 ml/20 g body weight). Dorsal hair were shaved by an electric clipper and sterilized with 75% alcohol. Two full-thickness skin wounds (8 × 8 mm) were surgically made on the back. After the surgery, the mice were placed in comfortable cages until they recovered from anesthesia. Nine mice were randomly divided into three groups. […] The left-sided wounds of the two groups were treated with the same volume of normal saline as vehicle, and the last group treated with 1 mg/ml KangFuXin (KFX, the ethanol extract of the American cockroach, Inner Mongolia Jingxin Pharmaceutical Co. Ltd, China, Z15020805) as positive control. Wounds were treated twice daily with samples and photographed at intervals of 2 days.
The condition of wounds was documented; then ImageJ software was used to estimate the wound areas (percentage of residual wound area to initial areas). […]

human erythrocytes = assay: Hemolytic activity assay; assay type: cell-based
Procedure: Hemolytic activity assay was performed according to previous research. Briefly, erythrocytes were triply and softly washed with 0.9% normal saline. Then cells were incubated with various concentrations of OA-GL12 for 30 min (37°C), while 0.1% Triton X-100 as maximum hemolysis. The absorbance of supernatant was read at 540 nm after centrifugation with 3000×g for 4 min at room temperature. The numeric data of hemolytic activity (%) was calculated by [(Asample) × 100]/Atriton x-100.

mice = assay: Acute toxicity assay; assay type: in vivo; settings: for Mortality (%): 3 male and 3 female mice, observed 2 weeks
Procedure: Two phases of acute toxicity were performed as previous study. Lethal concentration of OA-GL12 was tested at 5, 10, 25, and 50 μmol/kg by i.p. in mice, while using saline as negative control. The mortalities, toxic effects, and behavioral changes were observed and recorded for 2 weeks.

HaCaT cells [5] = assay: Cytotoxicity of Gefitinib on HaCaT cells; assay type: cell-based, human; settings: Gefitinib 1 μM, 24 h; data not shown
HSF cells = assay: Cellular wound healing (scratch) assay, HSF; assay type: cell-based, human; settings: MMC 10 µg/ml alone, 24 h; vehicle 38.96 ± 3.34%; mean ± S.D., n=9
Procedure: (§2) Cellular wound healing activity assay was performed as previous research. Briefly, human keratinocytes (HaCaT) (KCB 200442YJ) and human skin fibroblasts (HSF) (KCB 200537) were provided by Conservation Genetics CAS Kunming Cell Bank of Kunming Institute of Zoology, the Chinese Academy of Sciences, and cultured in Dulbecco’s modified Eagle’s medium (DMEM, BI, Israel) with 10% FBS (BI, Israel) and penicillin (100 units/ml)–streptomycin (100 units/ml) in a humidified atmosphere of 5% CO2 (37°C). The possible mycoplasma contamination was excluded by the EZ-PCR mycoplasma contamination detection kit (20-700-20, BI). Cell monolayer formation was formed by culturing the HaCaT and HSF (2.5 × 10^5 cells/well) cells in 24-well plates for 12–24 h with serum starvation and then made to the mechanical scratch wound by a sterile pipette tip (Axygen, U.S.A.). After washing with PBS twice to detach dead cells, cells monolayer was then cultured for next periods (from 0 to 24 h) in a serum-free basal medium (500 μl) with the continued presence of OA-GL12. The same volume of DMEM without OA-GL12 was made as vehicle. […] Cell migration activity was expressed as the percentage of the gap relative to the full area of the scratch using ImageJ software (National Institutes of Health, Bethesda, MD, U.S.A.) to evaluate the repair rate of scarification.

HaCaT cells [6] = assay: Cellular wound healing (scratch) assay, HaCaT; assay type: cell-based, human; settings: MMC 10 µg/ml alone, 24 h; vehicle 53.39 ± 10.11%; mean ± S.D., n=9
Procedure: as §2

CC1(C)S[C@@H]2[C@H](NC(=O)[C@H](N)c3ccccc3)C(=O)N2[C@H]1C(=O)O [Amp, ampicillin]
Antimicrobial activity [1]: + | Antimicrobial activity (C. albicans (ATCC 14053)): + | Antimicrobial activity (E. coli (ATCC 25922)): + | Antimicrobial activity (B. subtilis (ATCC 19659)): + | Antimicrobial activity [2]: +

O=C1O[C@H]([C@@H](O)CO)C(O)=C1O [Vitamin C]
DPPH scavenging activity ([3]; 0.063 μM): nearly inactive | DPPH scavenging ([3]; 1 μM, mean ± S.D., n=3): 7.71 ± 0.56%

CC[C@H](C)[C@H](NC(=O)CNC(=O)[C@H](CO)NC(=O)[C@H](CC(C)C)NC(=O)[C@H](CC(C)C)NC(=O)CN)C(=O)N[C@@H](CC(N)=O)C(=O)N[C@@H](C)C(=O)N[C@@H](CCC(=O)O)C(=O)N[C@@H](Cc1c[nH]c2ccccc12)C(=O)N1CCC[C@H]1C(=O)N[C@@H](CS)C(=O)O [OA-GL12] (H-GLLSGINAEWPC-OH)
adverse effects on mouse body weight, general health, or behavior [4]: No adverse effects | hemolytic activity on human erythrocytes in vitro (human erythrocytes): negligible hemolytic activity | Mortality (%) (mice; 5 μmol/kg i.p.): 0% | Mortality (%) (mice; 10 μmol/kg i.p.): 0% | Mortality (%) (mice; 25 μmol/kg i.p.): 0% | Mortality (%) (mice; 50 μmol/kg i.p.): 0% | death and abnormal behaviors (tremor, retardation, irritability, piloerection, stiffness of tail) (mice; i.p. injection, 2 weeks): no death and other abnormal behaviors

Triton X-100
Hemolytic ratio (%) (human erythrocytes; 0.1% Triton X-100 as maximum hemolysis, 30 min, 37°C, A540): 100%

COc1cc2ncnc(Nc3ccc(F)c(Cl)c3)c2cc1OCCCN1CCOCC1 [Gefitinib]
cytotoxicity on HaCaT cells (HaCaT cells [5]): no obvious cytotoxicity

CO[C@@]12[C@H](COC(N)=O)C3=C(C(=O)C(C)=C(N)C3=O)N1C[C@@H]1N[C@@H]12 [MMC, mitomycin C]
scratch healing of HSF cells (HSF cells): 22.78 ± 5.22% | healing rate of HaCaT cell scratch (HaCaT cells [6]): 26.66 ± 4.64%
